Reference: the supplement of paper PMC10307832

Key:
Experiment in all cases: relative viability (nuclei count vs DMSO), 5 days (fraction); higher = more cells survive
Vandetanib + Foretinib = compound: COc1cc2/c(=N/c3ccc(Br)cc3F)nc[nH]c2cc1OCC1CCN(C)CC1 [Vandetanib] + COc1cc2c(Oc3ccc(NC(=O)C4(C(=O)Nc5ccc(F)cc5)CC4)cc3F)ccnc2cc1OCCCN1CCOCC1 [Foretinib] (partner 0.25 µM)
Outline: (§1)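 Lung cancer cell lines, seeded in 1536-well plates, were treated the following day by pin tool with a single drug or with five library-drug doses (not always all listed) in √10 steps on top of a fixed anchor-drug dose. Cells were fixed and nuclei stained in one step after 5 days, and nuclei were counted. Relative viability is the nuclei count for treated wells divided by that for vehicle wells, reported as medians of duplicate plates.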

[1] = compound: C1=CC=C2C(=C1)N=C(S2)C(C#N)C3=NC(=NC=C3)NCCC4=CN=CC=C4 + Nc1nc2[nH]cc(CCc3ccc(C(=O)N[C@@H](CCC(=O)O)C(=O)O)cc3)c2c(=O)[nH]1 [Pemetrexed] (partner 0.2 µM)
Outline: as §1

[2] = compound: C1=CC=C2C(=C1)N=C(S2)C(C#N)C3=NC(=NC=C3)NCCC4=CN=CC=C4 + CC(=O)Nc1cccc(-n2c(=O)n(C3CC3)c(=O)c3c(Nc4ccc(I)cc4F)n(C)c(=O)c(C)c32)c1 [Trametinib] (partner 0.02 µM)
Outline: as §1

Vandetanib + Decitabine = compound: COc1cc2/c(=N/c3ccc(Br)cc3F)nc[nH]c2cc1OCC1CCN(C)CC1 [Vandetanib] + Nc1ncn([C@H]2C[C@H](O)[C@@H](CO)O2)c(=O)n1 [Decitabine] (partner 2 µM)
Outline: as §1

UMC-11
relative viability (Vandetanib + Foretinib; first compound 0.02 µM): 1.05
relative viability (Vandetanib + Foretinib; first compound 0.06325 µM): 1.01
relative viability (Vandetanib + Foretinib; first compound 0.2 µM): 0.281
relative viability (Vandetanib + Foretinib; first compound 0.6325 µM): 0.962
relative viability (Vandetanib + Foretinib; first compound 2 µM): 0.97
relative viability ([1]; first compound 0.01581 µM): 0.79
relative viability ([1]; first compound 0.05 µM): 0.769
relative viability ([1]; first compound 0.1581 µM): 0.94
relative viability ([1]; first compound 0.5 µM): 0.771
relative viability ([2]; first compound 0.01581 µM): 0.741
relative viability ([2]; first compound 0.05 µM): 0.664
relative viability ([2]; first compound 0.1581 µM): 0.839
relative viability ([2]; first compound 0.5 µM): 0.831
relative viability (Vandetanib + Decitabine; first compound 0.02 µM): 0.595
relative viability (Vandetanib + Decitabine; first compound 0.06325 µM): 0.553
relative viability (Vandetanib + Decitabine; first compound 0.2 µM): 0.665
relative viability (Vandetanib + Decitabine; first compound 0.6325 µM): 0.528
relative viability (Vandetanib + Decitabine; first compound 2 µM): 0.614
